Laboratory results as given in PubChem BioAssay (NCI).
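Interpolation was linear, between the two tested concentrations surrounding the appropriate level; five concentrations were tested over 48 hours in 96-well plates. GI50 = concentration required for 50% inhibition of growth. Definition used: TGI = concentration required for complete inhibition of growth.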

Experiments:
Test in all cases: inhibition of tumour cell growth, NCI panel, 48 h
[1] = tested on: SK-MEL-5 melanoma
[2] = tested on: SNB-75 CNS
[3] = tested on: SK-MEL-2 melanoma
[4] = tested on: A498 renal
[5] = tested on: CCRF-CEM leukemia
[6] = tested on: MALME-3M melanoma
[7] = tested on: UO-31 renal
[8] = tested on: HCC-2998 colon
[9] = tested on: PC-3 prostate
[10] = tested on: RXF 393 renal
[11] = tested on: TK-10 renal
[12] = tested on: DU-145 prostate
[13] = tested on: SK-OV-3 ovarian
[14] = tested on: K-562 leukemia
[15] = tested on: NCI-H23 lung
[16] = tested on: SF-539 CNS
[17] = tested on: SN12C renal
[18] = tested on: MDA-MB-231 breast
[19] = tested on: SF-295 CNS
[20] = tested on: SK-MEL-28 melanoma
[21] = tested on: OVCAR-5 ovarian
[22] = tested on: UACC-257 melanoma
[23] = tested on: ACHN renal
[24] = tested on: M14 melanoma
[25] = tested on: MDA-MB-435
[26] = tested on: RPMI-8226 leukemia

Work on Brc1ccc2[nH]cc(-c3nc(-c4c[nH]c5ccncc45)cs3)c2c1 yielded a GI50 [1] of 1.61 µM, a TGI [1] of 2.98 µM and a GI50 [2] of 1.22 µM. For the same compound, the TGI [2] was 2.53 µM, the GI50 [3] was 1.92 µM and the TGI [3] was 3.72 µM. For the same compound, the GI50 [4] was 1.81 µM, the TGI [4] was 3.22 µM and the GI50 [5] was 2.24 µM. For the same compound, the TGI [5] was 5.14 µM, the GI50 [6] was 2.14 µM and the TGI [6] was 3.72 µM. It also gave a GI50 [7] of 1.47 µM, a TGI [7] of 2.8 µM and a GI50 [8] of 1.98 µM. The TGI [8] was 3.6 µM, the GI50 [9] was 1.58 µM and the TGI [9] was 3.06 µM. For the same compound, the GI50 [10] was 1.49 µM, the TGI [10] was 2.87 µM and the GI50 [11] was 2.33 µM. The TGI [11] was 3.9 µM, the GI50 [12] was 1.68 µM and the TGI [12] was 3.07 µM. It also gave a GI50 [13] of 1.65 µM, a TGI [13] of 3.03 µM and a GI50 [14] of 0.98 µM. For the same compound, the TGI [14] was 3.38 µM, the GI50 [15] was 1.64 µM and the TGI [15] was 3.17 µM. For the same compound, the GI50 [16] was 1.72 µM, the TGI [16] was 3.11 µM and the GI50 [17] was 1.79 µM. For the same compound, the TGI [17] was 3.32 µM, the GI50 [18] was 1.52 µM and the TGI [18] was 2.95 µM. The GI50 [19] was 1.71 µM, the TGI [19] was 3.14 µM and the GI50 [20] was 1.73 µM. For the same compound, the TGI [20] was 3.13 µM, the GI50 [21] was 1.79 µM and the TGI [21] was 3.21 µM. For the same compound, the GI50 [22] was 1.92 µM, the TGI [22] was 3.46 µM and the GI50 [23] was 1.77 µM. The TGI [23] was 3.16 µM, the GI50 [24] was 1.83 µM and the TGI [24] was 3.42 µM. For the same compound, the GI50 [25] was 1.66 µM, the TGI [25] was 3.06 µM and the GI50 [26] was 2.48 µM. For the same compound, the TGI [26] was 5.23 µM.
